{"source": "BindingDB's records for doi:10.1038/nchembio.2304", "about": "(Novartis Institutes for BioMedical Research, 2017)", "assay_in_all_cases": "HMT Assay", "key": {"[1]": {"target": "Tyrosine-protein kinase BTK (Homo sapiens, UniProt Q06187)"}, "[2]": {"target": "Sodium-dependent noradrenaline transporter (Homo sapiens, UniProt P23975)"}, "[3]": {"target": "T1, Rho-associated protein kinase 2 [6-553] (Human, UniProt O75116)", "T1 construct": "6-553"}, "[4]": {"target": "T2, Tyrosine-protein kinase ABL1 [64-515] (Homo sapiens, UniProt P00519)", "T2 construct": "64-515"}, "[5]": {"target": "Mitogen-activated protein kinase kinase kinase kinase 4 (Homo sapiens, UniProt O95819)"}, "[6]": {"target": "T3, Mitogen-activated protein kinase kinase kinase 8 [30-404] (Human, UniProt P41279)", "T3 construct": "30-404"}, "[7]": {"target": "T4, Protein arginine N-methyltransferase 1 [11-371] (Homo sapiens, UniProt Q99873)", "T4 construct": "11-371", "T4 sequence (Q99873 11-371)": "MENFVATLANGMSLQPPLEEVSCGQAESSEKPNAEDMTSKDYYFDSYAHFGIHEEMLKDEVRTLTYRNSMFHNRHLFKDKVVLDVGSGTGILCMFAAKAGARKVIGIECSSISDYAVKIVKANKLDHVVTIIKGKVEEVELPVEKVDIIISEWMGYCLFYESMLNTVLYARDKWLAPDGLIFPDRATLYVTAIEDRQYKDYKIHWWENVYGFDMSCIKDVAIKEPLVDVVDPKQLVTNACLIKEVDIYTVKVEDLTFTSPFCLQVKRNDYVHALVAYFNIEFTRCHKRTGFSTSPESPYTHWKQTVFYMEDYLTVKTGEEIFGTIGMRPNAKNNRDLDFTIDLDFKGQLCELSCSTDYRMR"}, "[8]": {"target": "T5, Receptor-type tyrosine-protein kinase FLT3 [563-993,D835Y] (Human, UniProt P36888, D835Y)", "T5 construct": "563-993"}, "[9]": {"target": "Gamma-aminobutyric acid receptor subunit alpha-1 (Homo sapiens, UniProt P14867)"}, "[10]": {"target": "Muscarinic acetylcholine receptor M2 (Homo sapiens, UniProt P08172)"}, "[11]": {"target": "Tyrosine-protein kinase Lyn (Homo sapiens, UniProt P07948)"}, "[12]": {"target": "Histone-lysine N-methyltransferase NSD3 (Homo sapiens, UniProt Q9BZ95)"}, "[13]": {"target": "Protein kinase C alpha type (Homo sapiens, UniProt P17252)"}, "[14]": {"target": "Acetylcholine receptor subunit alpha (Homo sapiens, UniProt P02708)"}, "[15]": {"target": "Serine/threonine-protein kinase 4 (Human, UniProt Q13043)"}, "[16]": {"target": "T6, Fibroblast growth factor receptor 4 [388-802] (Human, UniProt P22455)", "T6 construct": "388-802"}, "[17]": {"target": "5-hydroxytryptamine receptor 1A (Homo sapiens, UniProt P08908)"}, "[18]": {"target": "N-lysine methyltransferase SETD6 (Human, UniProt Q8TBK2)", "sequence (Q8TBK2 whole entry)": "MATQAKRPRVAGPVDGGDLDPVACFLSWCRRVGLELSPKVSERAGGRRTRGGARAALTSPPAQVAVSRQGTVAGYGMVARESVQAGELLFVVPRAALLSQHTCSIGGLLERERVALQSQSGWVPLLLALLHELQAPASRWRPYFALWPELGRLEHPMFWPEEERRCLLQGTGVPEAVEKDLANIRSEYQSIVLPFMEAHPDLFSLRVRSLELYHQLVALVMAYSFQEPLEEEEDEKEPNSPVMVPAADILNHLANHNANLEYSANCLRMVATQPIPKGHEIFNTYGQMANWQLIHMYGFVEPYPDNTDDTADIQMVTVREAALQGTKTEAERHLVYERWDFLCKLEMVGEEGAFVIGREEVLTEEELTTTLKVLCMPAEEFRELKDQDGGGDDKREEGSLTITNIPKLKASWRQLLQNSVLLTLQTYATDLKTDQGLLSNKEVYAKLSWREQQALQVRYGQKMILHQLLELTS"}, "Estrogen receptor": {"target": "Estrogen receptor (Homo sapiens, UniProt P03372)"}, "[19]": {"target": "Histone-lysine N-methyltransferase SUV39H2 (Human, UniProt Q9H5I1)"}, "[20]": {"target": "Methylosome protein 50/Protein arginine N-methyltransferase 5 (Homo sapiens, UniProt O14744)"}, "[21]": {"target": "DNA (cytosine-5)-methyltransferase 1 (Homo sapiens, UniProt P26358)", "sequence (P26358 whole entry)": "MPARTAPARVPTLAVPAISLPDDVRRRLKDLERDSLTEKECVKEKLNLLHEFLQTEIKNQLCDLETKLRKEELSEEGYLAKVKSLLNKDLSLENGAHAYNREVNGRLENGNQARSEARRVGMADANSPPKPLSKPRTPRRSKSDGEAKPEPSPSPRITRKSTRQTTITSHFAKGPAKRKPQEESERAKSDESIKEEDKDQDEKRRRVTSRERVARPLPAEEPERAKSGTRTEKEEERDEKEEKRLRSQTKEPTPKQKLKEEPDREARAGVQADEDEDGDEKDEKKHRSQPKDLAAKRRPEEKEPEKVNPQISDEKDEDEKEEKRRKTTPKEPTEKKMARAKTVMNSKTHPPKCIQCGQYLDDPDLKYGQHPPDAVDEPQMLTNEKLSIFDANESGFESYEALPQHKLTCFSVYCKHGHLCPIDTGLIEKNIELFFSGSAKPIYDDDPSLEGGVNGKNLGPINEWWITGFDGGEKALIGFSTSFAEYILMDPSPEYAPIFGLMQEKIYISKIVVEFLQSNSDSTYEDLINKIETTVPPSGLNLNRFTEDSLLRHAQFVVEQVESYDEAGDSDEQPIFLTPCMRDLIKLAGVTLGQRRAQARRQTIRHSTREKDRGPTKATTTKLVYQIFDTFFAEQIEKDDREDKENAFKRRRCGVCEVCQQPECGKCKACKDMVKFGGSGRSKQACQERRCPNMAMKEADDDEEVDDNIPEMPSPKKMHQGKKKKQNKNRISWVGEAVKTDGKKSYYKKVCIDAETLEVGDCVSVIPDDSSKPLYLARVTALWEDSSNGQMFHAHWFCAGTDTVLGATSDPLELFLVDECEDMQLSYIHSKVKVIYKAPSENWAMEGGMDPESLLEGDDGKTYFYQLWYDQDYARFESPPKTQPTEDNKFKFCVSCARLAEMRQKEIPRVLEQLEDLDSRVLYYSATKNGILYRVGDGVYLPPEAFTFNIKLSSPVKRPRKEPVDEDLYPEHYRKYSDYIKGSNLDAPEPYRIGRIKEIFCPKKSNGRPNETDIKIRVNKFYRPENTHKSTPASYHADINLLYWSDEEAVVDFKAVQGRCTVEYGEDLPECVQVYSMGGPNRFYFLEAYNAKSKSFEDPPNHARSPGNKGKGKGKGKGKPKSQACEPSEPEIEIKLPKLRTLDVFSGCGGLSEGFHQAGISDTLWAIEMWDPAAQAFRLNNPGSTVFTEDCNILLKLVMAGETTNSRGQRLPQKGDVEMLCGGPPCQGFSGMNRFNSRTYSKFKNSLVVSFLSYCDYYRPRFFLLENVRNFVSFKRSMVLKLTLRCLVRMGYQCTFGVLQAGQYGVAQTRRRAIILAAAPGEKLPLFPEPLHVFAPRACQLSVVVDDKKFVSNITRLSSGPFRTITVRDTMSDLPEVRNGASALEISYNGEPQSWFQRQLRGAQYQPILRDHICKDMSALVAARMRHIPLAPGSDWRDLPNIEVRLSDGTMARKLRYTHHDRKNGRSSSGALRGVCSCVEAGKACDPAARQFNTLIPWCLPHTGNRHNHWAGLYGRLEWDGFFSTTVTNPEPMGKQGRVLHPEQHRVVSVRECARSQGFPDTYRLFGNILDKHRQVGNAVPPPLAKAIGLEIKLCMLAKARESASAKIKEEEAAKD"}, "[22]": {"target": "T7, Fibroblast growth factor receptor 2 [406-821] (Human, UniProt P21802)", "T7 construct": "406-821"}, "[23]": {"target": "Protein arginine N-methyltransferase 3 [N508S] (Homo sapiens, UniProt O60678, N508S)", "sequence (O60678 2-531 N508S limits assumed)": "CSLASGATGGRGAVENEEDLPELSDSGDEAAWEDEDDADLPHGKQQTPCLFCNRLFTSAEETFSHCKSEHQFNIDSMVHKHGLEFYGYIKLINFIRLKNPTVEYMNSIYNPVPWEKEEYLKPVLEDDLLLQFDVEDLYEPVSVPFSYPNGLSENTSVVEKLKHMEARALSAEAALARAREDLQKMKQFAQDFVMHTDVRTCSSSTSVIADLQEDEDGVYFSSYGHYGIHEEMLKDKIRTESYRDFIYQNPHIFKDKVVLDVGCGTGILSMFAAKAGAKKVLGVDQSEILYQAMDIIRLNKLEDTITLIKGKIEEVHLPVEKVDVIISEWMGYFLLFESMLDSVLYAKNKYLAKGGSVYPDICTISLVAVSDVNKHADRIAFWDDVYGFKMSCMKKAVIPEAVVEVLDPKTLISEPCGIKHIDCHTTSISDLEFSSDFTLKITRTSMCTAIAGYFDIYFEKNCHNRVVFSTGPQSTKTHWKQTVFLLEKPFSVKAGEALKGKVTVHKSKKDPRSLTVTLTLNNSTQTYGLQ"}, "D(1A) dopamine receptor": {"target": "D(1A) dopamine receptor (Homo sapiens, UniProt P21728)"}, "[24]": {"target": "Alpha-1A adrenergic receptor (Homo sapiens, UniProt P35348)"}, "[25]": {"target": "Protein kinase C theta type (Homo sapiens, UniProt Q04759)"}, "[26]": {"target": "Serine/threonine-protein kinase 17B (Homo sapiens, UniProt O94768)", "sequence (O94768 whole entry)": "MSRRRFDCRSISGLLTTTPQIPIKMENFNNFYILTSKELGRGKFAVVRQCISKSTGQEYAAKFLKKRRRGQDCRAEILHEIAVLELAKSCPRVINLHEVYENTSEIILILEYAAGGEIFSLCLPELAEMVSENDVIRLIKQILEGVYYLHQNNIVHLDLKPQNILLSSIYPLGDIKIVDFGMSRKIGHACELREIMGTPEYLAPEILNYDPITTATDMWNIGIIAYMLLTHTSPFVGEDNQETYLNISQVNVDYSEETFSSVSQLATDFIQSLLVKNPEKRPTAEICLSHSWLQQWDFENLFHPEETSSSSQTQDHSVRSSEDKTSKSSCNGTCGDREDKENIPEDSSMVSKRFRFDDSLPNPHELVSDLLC"}, "[27]": {"target": "T8, Interleukin-1 receptor-associated kinase 1 [184-712] (Human, UniProt P51617)", "T8 construct": "184-712"}, "[28]": {"target": "N-lysine methyltransferase SMYD2 (Homo sapiens, UniProt Q9NRG4)", "description": "(§1) All HMT reactions were performed as described previously [Nasveschuk et al., ACS Med. Chem. Lett., 5:378-383]."}, "[29]": {"target": "Histone-lysine N-methyltransferase, H3 lysine-79 specific (Homo sapiens, UniProt Q8TEK3)", "description": "as §1"}, "[30]": {"target": "Histone-lysine N-methyltransferase EHMT2 (Homo sapiens, UniProt Q96KQ7)", "description": "as §1"}, "[31]": {"target": "Histone-lysine N-methyltransferase SETD2 (Homo sapiens, UniProt Q9BYW2)", "description": "as §1"}, "[32]": {"target": "Histone-lysine N-methyltransferase SETD7 (Homo sapiens, UniProt Q8WTS6)", "description": "as §1"}, "[33]": {"target": "Histone-lysine N-methyltransferase NSD2 (Homo sapiens, UniProt O96028)", "sequence (O96028 whole entry)": "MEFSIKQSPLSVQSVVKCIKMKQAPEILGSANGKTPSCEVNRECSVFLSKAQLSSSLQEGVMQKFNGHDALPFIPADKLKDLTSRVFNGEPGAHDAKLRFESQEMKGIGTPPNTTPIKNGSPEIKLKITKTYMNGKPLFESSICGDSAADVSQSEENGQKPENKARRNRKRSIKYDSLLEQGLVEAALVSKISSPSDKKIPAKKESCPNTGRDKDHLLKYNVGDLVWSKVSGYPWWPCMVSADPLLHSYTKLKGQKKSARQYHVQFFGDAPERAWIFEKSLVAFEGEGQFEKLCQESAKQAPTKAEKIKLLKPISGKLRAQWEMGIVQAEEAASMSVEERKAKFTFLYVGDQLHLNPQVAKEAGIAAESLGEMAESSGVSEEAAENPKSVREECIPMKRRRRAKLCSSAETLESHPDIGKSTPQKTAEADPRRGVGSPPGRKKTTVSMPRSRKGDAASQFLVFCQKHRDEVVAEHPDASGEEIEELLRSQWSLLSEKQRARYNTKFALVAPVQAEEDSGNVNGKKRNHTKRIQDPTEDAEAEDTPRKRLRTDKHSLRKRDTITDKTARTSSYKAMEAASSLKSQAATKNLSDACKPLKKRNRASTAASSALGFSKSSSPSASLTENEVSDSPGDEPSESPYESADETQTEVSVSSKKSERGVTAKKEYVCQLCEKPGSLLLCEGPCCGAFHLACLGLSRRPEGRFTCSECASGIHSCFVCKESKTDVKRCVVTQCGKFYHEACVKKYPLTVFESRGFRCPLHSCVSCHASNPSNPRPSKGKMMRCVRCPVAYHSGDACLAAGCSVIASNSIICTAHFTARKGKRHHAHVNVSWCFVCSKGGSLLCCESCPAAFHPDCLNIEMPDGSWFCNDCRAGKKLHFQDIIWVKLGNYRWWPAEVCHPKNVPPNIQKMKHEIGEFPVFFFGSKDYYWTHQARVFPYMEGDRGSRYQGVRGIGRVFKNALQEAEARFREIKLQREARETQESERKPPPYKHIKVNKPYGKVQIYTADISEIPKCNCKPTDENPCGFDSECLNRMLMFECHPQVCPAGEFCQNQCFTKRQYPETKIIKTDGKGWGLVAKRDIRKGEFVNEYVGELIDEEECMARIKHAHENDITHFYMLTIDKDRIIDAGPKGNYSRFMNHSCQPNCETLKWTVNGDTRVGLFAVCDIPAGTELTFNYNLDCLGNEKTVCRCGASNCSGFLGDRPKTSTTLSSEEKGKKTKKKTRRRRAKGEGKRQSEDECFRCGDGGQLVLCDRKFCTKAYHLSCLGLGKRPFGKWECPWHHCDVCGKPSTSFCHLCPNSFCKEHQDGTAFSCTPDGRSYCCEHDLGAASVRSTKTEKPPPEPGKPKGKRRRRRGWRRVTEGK", "description": "as §1"}, "[34]": {"target": "Histone-lysine N-methyltransferase SETDB1 (Homo sapiens, UniProt Q15047)", "description": "as §1"}, "[35]": {"target": "Histone-lysine N-methyltransferase SMYD3 (Homo sapiens, UniProt Q9H7B4)", "description": "as §1"}, "[36]": {"target": "Histone-arginine methyltransferase CARM1 (Homo sapiens, UniProt Q86X55)", "description": "as §1"}}}
{"smiles": "CS(=O)(=O)c1ccc(-c2cnc(NCc3ccco3)n3cnnc23)cc1", "note": "[EED226]", "values": [{"measurement": "IC50", "setting": "[1]", "value": "> 10", "unit": "µM"}, {"measurement": "IC50", "setting": "[2]", "value": "> 30", "unit": "µM"}, {"measurement": "IC50", "setting": "[3]", "value": "> 10", "unit": "µM"}, {"measurement": "IC50", "setting": "[4]", "value": "> 10", "unit": "µM"}, {"measurement": "IC50", "setting": "[5]", "value": "> 10", "unit": "µM"}, {"measurement": "IC50", "setting": "[6]", "value": "> 10", "unit": "µM"}, {"measurement": "IC50", "setting": "[7]", "value": "> 100", "unit": "µM"}, {"measurement": "IC50", "setting": "[8]", "value": "> 10", "unit": "µM"}, {"measurement": "IC50", "setting": "[9]", "value": "> 30", "unit": "µM"}, {"measurement": "IC50", "setting": "[10]", "value": "> 30", "unit": "µM"}, {"measurement": "IC50", "setting": "[11]", "value": "> 10", "unit": "µM"}, {"measurement": "IC50", "setting": "[12]", "value": "> 100", "unit": "µM"}, {"measurement": "IC50", "setting": "[13]", "value": "> 10", "unit": "µM"}, {"measurement": "IC50", "setting": "[14]", "value": "> 30", "unit": "µM"}, {"measurement": "IC50", "setting": "[15]", "value": "> 10", "unit": "µM"}, {"measurement": "IC50", "setting": "[16]", "value": "> 10", "unit": "µM"}, {"measurement": "IC50", "setting": "[17]", "value": "> 30", "unit": "µM"}, {"measurement": "IC50", "setting": "[18]", "value": "> 100", "unit": "µM"}, {"measurement": "IC50", "setting": "Estrogen receptor", "value": "> 30", "unit": "µM"}, {"measurement": "IC50", "setting": "[19]", "value": "> 100", "unit": "µM"}, {"measurement": "IC50", "setting": "[20]", "value": "> 100", "unit": "µM"}, {"measurement": "IC50", "setting": "[21]", "value": "> 100", "unit": "µM"}, {"measurement": "IC50", "setting": "[22]", "value": "> 10", "unit": "µM"}, {"measurement": "IC50", "setting": "[23]", "value": "> 100", "unit": "µM"}, {"measurement": "IC50", "setting": "D(1A) dopamine receptor", "value": "> 30", "unit": "µM"}, {"measurement": "IC50", "setting": "[24]", "value": "> 30", "unit": "µM"}, {"measurement": "IC50", "setting": "[25]", "value": "> 10", "unit": "µM"}, {"measurement": "IC50", "setting": "[26]", "value": "> 10", "unit": "µM"}, {"measurement": "IC50", "setting": "[27]", "value": "> 10", "unit": "µM"}, {"measurement": "IC50", "setting": "[28]", "value": "> 100", "unit": "µM"}, {"measurement": "IC50", "setting": "[29]", "value": "> 100", "unit": "µM"}, {"measurement": "IC50", "setting": "[30]", "value": "> 100", "unit": "µM"}, {"measurement": "IC50", "setting": "[31]", "value": "> 100", "unit": "µM"}, {"measurement": "IC50", "setting": "[32]", "value": "> 100", "unit": "µM"}, {"measurement": "IC50", "setting": "[33]", "value": "> 100", "unit": "µM"}, {"measurement": "IC50", "setting": "[34]", "value": "> 100", "unit": "µM"}, {"measurement": "IC50", "setting": "[35]", "value": "> 100", "unit": "µM"}, {"measurement": "IC50", "setting": "[36]", "value": "> 100", "unit": "µM"}]}
